A short description of the experiment: Vasorelaxant effect in rabbit pulmonary artery assessed as inhibition of KCl-induced contraction at 100 uM. It is filed as functional. Particulars: Oryctolagus cuniculus.
In the case of `N#Cc1c(-c2cccc([N+](=O)[O-])c2)cc(-c2cccc(Nc3ccc(=O)[nH]n3)c2)[nH]c1=O`, the inhibition at 100 µM came to 9.1%.

As to `CCOc1ccc2nc(C)cc(Nc3ccc(C4=NNC(=O)CC4)c(O)c3)c2c1`, the inhibition at 100 µM is 36.2%.

Take `COc1ccc2nc(C)cc(Nc3ccc(C4=NNC(=O)CC4)c(C)c3)c2c1`: the inhibition at 100 µM is 25%.

As to `COc1ccc2nc(C)cc(Nc3ccc(C4=NNC(=O)CC4C)cc3)c2c1` (stereo unspecified), the inhibition at 100 µM is 21.5%.

Take `Cc1ccc2nc(C)cc(Nc3ccc(C4=NNC(=O)CC4)c(O)c3)c2c1`: the inhibition at 100 µM was 18.5%.

With `CCOC(=O)c1c[nH]c2ccc(C3=NNC(=O)CC3C)cc2c1=O` (stereo unspecified), the inhibition at 100 µM is 14.5%.

As for `CCOC(=O)c1c[nH]c2ccc(C3=NNC(=O)CC3)cc2c1=O`, the inhibition at 100 µM was found to be 14.5%.

Turning to `COc1ccc2nc(C)cc(Nc3ccc(C4=NNC(=O)CC4)c(O)c3)c2c1`, the inhibition at 100 µM came to 34.3%.

In the case of `N#Cc1c(-c2cccnc2)cc(-c2cccc(Nc3ccc(=O)[nH]n3)c2)[nH]c1=O`, the inhibition at 100 µM amounted to 8.17%.

Turning to `Cc1ccc2nc(C)cc(Nc3ccc(C4=NNC(=O)CC4C)cc3)c2c1` (stereo unspecified), the inhibition at 100 µM worked out at 22.7%.

In the case of `Cc1[nH]c(=O)c(C#N)cc1-c1ccncc1` [MILRINONE], the inhibition at 100 µM amounted to 60.5%.
